Measured values from paper PMC7708037, “Targeting OGG1 arrests cancer cell proliferation by inducing replication stress” (Nucleic Acids Research, 2020).
“Also recorded” adds a separate entry of the source.

Experiments:
[1] = system: peripheral blood mononuclear cells (PBMCs); assay: PBMC proliferation / tolerance; assay type: cell-based
Procedure: Peripheral blood mononuclear Cells (PBMC) were isolated from peripheral whole blood from controls using Histopaque®-1077 (Sigma-Aldrich, San Luis, MO, USA) following the manufacturer's instructions. Briefly, peripheral blood was collected in heparin and diluted with equal amount of PBS. Next, blood was centrifuged with Histopaque®-1077 at 400 × g for 30 min at room temperature and the PBMC layer was recovered. All steps were processed within 4 h after blood extraction.
PMBCs and CD34- fraction (CB) were cultured in the presence of PHA-L (Sigma-Aldrich, ref: 11249738001) or Dynabeads® Human T-Activator CD3/CD28 (Thermofisher scientific, ref: 11131D) for the activation and expansion of human T cells according to the manufacturer's instructions. […]
experiments (Supplementary Table S1).
PBMCs from two donors were activated using Dynabeads and exposed to 10 µM TH5487 during 72 h […]
to follow cell numbers. […] CD3+ T-cells were activated with Dynabeads and treated with DMSO or TH5487 for 6 days, or 25 µM camptothecin for 24 h as a technical control. Survival was assessed by flow cytometry. Data are three technical replicates from one donor, representative of four individuals. Paired, two-sided T-tests were used to assess significance (ns, non-significant, ****, P<0.0001). I. to K. Gating strategy for identification of dead cells. CD3+ cells were stained with Annexin V and Sytox Blue. […]

A3 cells = assay: Cell cycle distribution by flow cytometry; assay type: cell-based, human; conditions: 10 μM
Procedure: At the indicated time points, compound/dox treated cells were incubated in medium containing 10 μM 5-ethynyl-2′-deoxyuridine (EdU) (Thermo Fisher, A10044) for 20 min. Next, cells were fixed in cold 70% ethanol overnight. The azide alkyne Huisgen cycloaddition (‘Click reaction’) was carried out according to the Click-iT EdU Imaging Manual (Thermo Fisher) using various fluorescent dyes: Alexa Fluor® 488 azide (Thermo Fisher, A10266), Alexa Fluor® 647 azide (Thermo Fisher, A10277), or TAMRA azide (Thermo Fisher, T10182), depending on assay conditions. […] Data was analyzed using Kaluza® Flow Analysis Software (Beckman Coulter). […]
untreated parental HEK293T. […] Statistical significance was determined using Mann Witney test (**, P<0.01, ***, P<0.001 and ****, P<0.0001 , ns, non-significant).
Supplementary Fig. S6: 8 -oxodG levels and cell cycle distribution. […] The indicated shNT cells were treated with 250 ng/ml doxycycline for 0, 96, or 144 h, and the amount of genomic 8-oxodG was quantified with LC -MS/MS. […] Cells were treated with 10 µM TH5487 or an equivalent volume DMSO for the indicated times, and the cell cycle distribution was determined by flow cytometry. […] A3 shNT (grey), sh2 (blue), and sh3 (red), were treated with 250 ng/ml doxycycline for 48 –120 h, and the cell cycle distribution was determined with flow cytometry. […]

[2] = system: EdU incorporation in A3 cells; assay: EdU flow cytometry analysis; assay type: cell-based, human; conditions: 10 μM
Procedure: At the indicated time points, compound/dox treated cells were incubated in medium containing 10 μM 5-ethynyl-2′-deoxyuridine (EdU) (Thermo Fisher, A10044) for 20 min. Next, cells were fixed in cold 70% ethanol overnight. The azide alkyne Huisgen cycloaddition (‘Click reaction’) was carried out according to the Click-iT EdU Imaging Manual (Thermo Fisher) using various fluorescent dyes: Alexa Fluor® 488 azide (Thermo Fisher, A10266), Alexa Fluor® 647 azide (Thermo Fisher, A10277), or TAMRA azide (Thermo Fisher, T10182), depending on assay conditions. Samples were incubated with Alexa Fluor® 488 Mouse anti-H2AX (pS139) (BD Biosciences, 560445) overnight at 4°C and finally stained with DAPI solution [10 μg/ml DAPI (Sigma, D9542), 0.1 mg/ml RNase A (Thermo Fisher, EN0531), 1% BSA in PBS] for 20 min at room temperature. Measurements were done using a Navios Flow Cytometer (Beckman Coulter). Data was analyzed using Kaluza® Flow Analysis Software (Beckman Coulter).
Supplementary Fig. S7: EdU incorporation in OGG1 perturbed A3 cells. A. Cells harboring the indicated shRNA constructs were treated with doxycycline for 48, 96 and 144 h and pulsed with EdU for 20 minutes before fixation, followed by Alexa-488 conjugation by click chemistry and quantitation by flow cytometry. […] Statistical significance was determined using unpaired, two-sided T-tests (*, […]

SMILES: O=C(Nc1ccc(I)cc1)N1CCC(n2c(=O)[nH]c3c(Br)cccc32)CC1 [TH5487]
- Tolerance by resting and activated PBMCs ([1]; 10 μM, healthy donors): well tolerated
- Proliferation of activated PBMCs ([1]; Dynabeads-activated PBMCs from two donors, 10 µM, 72 h): does not affect proliferation
- Cell cycle distribution (A3 cells): remained largely constant
- Sub-G1 population (A3 cells): accumulation in the sub-G1 population
- DNA synthesis (EdU incorporation) [2]: only detectable after 96 h treatment; also recorded: DNA synthesis was reduced
